From patent US9763980B2, “Combined chemical modification of sphingosine-1-phosphate (S1P) and CXCR4 signalling pathways for hematopoietic stem cell (HSC) mobilization and engraftment” (Children's Medical Center Corporation, priority 2011, dated 2017)

Tests used:
[1] = test system: systemic lupus erythematosus (SLE); conditions: mouse model for systemic lupus erythematosus (SLE); cited from earlier work
[2] = test system: graft coronary artery disease and graft-versus-host disease (GVHD); conditions: mouse models for graft coronary artery disease and graft-versus-host disease (GVHD); cited from earlier work
[3] = test system: CHT hematopoiesis (HSPC markers cmyb and runx1 in the CHT); test: Zebrafish embryo chemical treatment and dose matrices, whole mount in situ hybridization of cmyb/runx1 in the CHT; format: in vivo
Method: Transgenic zebrafish embryos were intercrossed and selected using epifluorescence (e.g. Runx1+23:EGFP, cmyb:EGFP^4, cd41:EGFP^2, kdrl:DsRed2^31). Live imaging was performed using a spinning disk confocal microscope with an incubated chamber. Zebrafish embryos were mounted and imaged as previously described. Live mouse fetal liver explants were prepared as previously described for aorta-gonad-mesonephros tissue^10. Image processing was done primarily with Fluorender^32 and ImageJ, which included the MTrackJ plugin^33 for manual cell tracking. For chemical screening and dose matrices, stage-matched AB embryos were dechorionated and arrayed 8-10/well in 96-well mesh-bottomed plates (Millipore). Embryos were treated from 48-72 hpf by placement directly in 96-well receiver plates containing small molecules diluted in E3 media+1% DMSO. Embryos were checked for circulation before fixation. Whole mount in situ hybridization was performed as previously described^34, with the addition of 0.2% glutaraldehyde to 4% formaldehyde at the post-fixation step. […] Lineage tracing was performed by injecting cd41:EGFP positive embryos with caged fluorescein conjugated to dextran (MW 10000). Embryos were uncaged in the DA at 28 hpf with a UV laser. Embryos were raised to 46 hpf in E3 media or E3+S1PR1 antagonist W146 (10 μM), then fixed for antibody staining to detect double positive cd41:EGFP and uncaged FITC HSPCs. Receptor fusion cDNAs (25 pg) were injected into one-cell embryos with Tol2 RNA (15 pg). Flow cytometry was performed using a LSR II and cells were sorted using a FACSAria (BD Biosciences). Flow cytometry data was analyzed using FACSDiva and FlowJo software.
Having followed newly born aortic HSPCs to the intermediate tissue, the inventors assessed the signaling pathways involved in embryonic migration. The inventors designed a chemical genetic screen to introduce small molecules to the zebrafish embryo from the peak window of HSPC migration to the CHT (48-72 hpf).

[4] = test system: airway inflammation and induction of bronchial hyperresponsiveness; conditions: mouse model for airway inflammation and induction of bronchial hyperresponsiveness; cited from earlier work
[5] = test system: rheumatoid arthritis; conditions: rat models for rheumatoid arthritis; cited from earlier work
[6] = test system: HSC; conditions: Massberg et al.; cited from earlier work
[7] = test system: autoimmune myocarditis; conditions: rat model for autoimmune myocarditis; cited from earlier work
[8] = test system: experimental autoimmune encephalomyelitis (EAE); conditions: EAE in rats, a model for human multiple sclerosis; cited from earlier work
[9] = test system: multiple sclerosis; conditions: cited from earlier work
[10] = test system: progressive mesangioproliferative glomerulonephritis; conditions: rat model for progressive mesangioproliferative glomerulonephritis; cited from earlier work
[11] = test system: asthma; conditions: mouse model for asthma; cited from earlier work
[12] = clinical trials; due to agonism of the S1P3 receptor; cited from earlier work
[13] = test system: brain inflammatory reaction following traumatic brain injury (TBI); conditions: rat model for brain inflammatory reaction following traumatic brain injury (TBI); cited from earlier work
[14] = test system: inflammatory bowel disease including colitis; conditions: mouse models for inflammatory bowel disease including colitis; cited from earlier work
[15] = test system: ischemia-reperfusion injury; conditions: mouse model for ischemia-reperfusion injury; cited from earlier work
[16] = test system: peripheral lymphocyte; conditions: in vivo; cited from earlier work
[17] = test system: atopic dermatitis; conditions: mouse model for atopic dermatitis; cited from earlier work
[18] = test system: atherosclerosis; conditions: mouse models for atherosclerosis; cited from earlier work
[19] = test system: acute viral myocarditis; conditions: mouse model for acute viral myocarditis; cited from earlier work
[20] = test system: autoimmune uveitis; conditions: rat model for autoimmune uveitis; cited from earlier work
[21] = Phase II clinical trials, relapsing-remitting multiple sclerosis

Question: Which therapeutic efficacy [1] does the source give for `CCCCCCCCc1ccc(CCC(N)(CO)CO)cc1` [FTY720, 2-amino-2-[2-(4-octylphenyl)ethyl]propane-1,3-diol] here?
Answer: therapeutic efficacy

Question: And the therapeutic efficacy [2]?
Answer: therapeutic efficacy

Question: What about the “CHT score (greatest engraftment in dose matrix)” value ([3]; 15 μM AMD3100 and 5 μM FTY720) of the same molecule?
Answer: +2

Question: And the HSC engraftment ([3]; 3:1 ratio of FTY720:AMD3100)?
Answer: promote and enhance HSC engraftment

Question: What about the “migration of HSC from the bone marrow” value ([3]; 5:1 ratio of FTY720:AMD3100) of the same molecule?
Answer: promote migration of HSC

Question: What about the “cmyb/runx1 expression in the CHT” value ([3]; FTY720 5 μM alone, treatment from 48 hpf, 72 hpf embryos) of the same molecule?
Answer: little effect

Question: What about the CHT hematopoiesis ([3]; FTY720 (5μM) combined with AMD3100 (15μM)) of the same molecule?
Answer: increase

Question: And the CHT hematopoiesis ([3]; FTY720 with increased AMD3100 dose)?
Answer: greatly reduced

Question: What about the CHT hematopoiesis ([3]; combination of FTY720 and AMD3100 at specific combined doses (interaction matrix)) of the same molecule?
Answer: increased

Question: What about the “Experimental data: concentration of S1PR1 modulating agent in the combination effective at increasing HSC engraftment” value ([3]; combination with AMD3100) of the same molecule?
Answer: 5 µM

Question: And the “Experimental data: concentration of S1PR1 modulating agent in the combination effective at increasing HSC mobilization” value ([3]; combination with AMD3100)?
Answer: 5 μM FTY720

Question: And the “mobilization of HSC from the bone marrow in vivo” value ([3]; combination with AMD3100 in specific ratios)?
Answer: improves mobilization

Question: And the CHT hematopoiesis ([3]; dose matrices, agent combined with AMD3100)?
Answer: synergistic increases

Question: And the CHT hematopoiesis ([3]; each agent alone at the doses of the effective FTY720/AMD3100 combination)?
Answer: no effect

Question: What about the therapeutic efficacy [4] of the same molecule?
Answer: therapeutic efficacy

Question: And the therapeutic efficacy [5]?
Answer: therapeutic efficacy

Question: What about the “HSC egress from tissues” value [6] of the same molecule?
Answer: blocked

Question: What about the therapeutic efficacy [7] of the same molecule?
Answer: therapeutic efficacy

Question: What about the therapeutic efficacy [8] of the same molecule?
Answer: therapeutic efficacy

Question: And the clinical disease activity [9, 21]?
Answer: reduce

Question: And the “number of lesions detected by magnetic resonance imaging (MRI)” value [9, 21]?
Answer: reduce

Question: What about the therapeutic efficacy ([9]; multiple sclerosis, clinical trials) of the same molecule?
Answer: therapeutic efficacy

Question: What about the therapeutic efficacy [10] of the same molecule?
Answer: therapeutic efficacy

Question: What about the therapeutic efficacy [11] of the same molecule?
Answer: therapeutic efficacy

Question: And the adverse event [12]?
Answer: transient asymptomatic bradycardia

Question: And the therapeutic efficacy [13]?
Answer: therapeutic efficacy

Question: What about the therapeutic efficacy [14] of the same molecule?
Answer: therapeutic efficacy

Question: And the therapeutic efficacy [15]?
Answer: therapeutic efficacy

Question: What about the “lymphopenia (peripheral lymphocyte lowering)” value [16] of the same molecule?
Answer: rapidly and reversibly induce lymphopenia

Question: What about the therapeutic efficacy [17] of the same molecule?
Answer: therapeutic efficacy

Question: And the therapeutic efficacy [18]?
Answer: therapeutic efficacy

Question: And the therapeutic efficacy [19]?
Answer: therapeutic efficacy

Question: What about the therapeutic efficacy [20] of the same molecule?
Answer: therapeutic efficacy
